Test results: patent US20090269351A1, “METHOD OF DIAGNOSING AND TREATING GLIOMA” (Genentech, Inc., priority 2006, published 2009)

How the values were obtained:
tumor = conditions: nude mouse model, Teicher et al. 2002; cited from earlier work
GBM-derived neurospheres = experiment: Neurosphere growth with growth factors; type: cell-based, human; conditions: for neurosphere growth: maximal concentration of 20 ng/ml
Description: Previously described GBM cell lines were used for the instant in vitro studies (Hartman et al., Internat. J. One. 15: 975-982 (1999)). To create neurosphere cultures, two cell lines (G63 and G69) were sorted using a CD133 cell isolation kit (Miltenyi Biotech) according to manufacturer's instructions, and maintained in culture as described for primary GBM specimens (Singh et al., Nature 432: 396-401 (2004)). All neurosphere cultures were maintained in Neurobasal medium (Invitrogen) with N2 supplement (Invitrogen) and NSF1 (Cambrex). For growth studies, both EGF and IGF2 were added at a concentration of 20 ng/ml. Neurospheres of primary GBM were obtained as unsorted dissociate of primary tumor (from Drs. M. Westphal and K. Lamszuz, Univ. Hamburg), expanded and maintained under the same conditions described for cel line-derived neurospheres. Neurosphere assays were performed in triplicate.
When IGF2-dependent neurospheres were disassociated and subjected to a proliferation assay using increasing concentrations of EGF or IGF2, both growth factors induced rapid growth. The growth rate based on growth factor dosage produced an identical growth curve for each growth factor (FIG. 3B).

| Compound | anti-tumor effect (tumor) | neurosphere growth (GBM-derived neurospheres) | proliferative response of neurospheres compared with EGF (GBM-derived neurospheres; neurosphere system) |
| --- | --- | --- | --- |
| Cl.Cn1cc(C2=C(c3cn(C4CCN(Cc5ccccn5)CC4)c4ccccc34)C(=O)NC2=O)c2ccccc21 [317615-HCL] | anti-tumor effect | – | – |
| IGF2: Recombinant IGF2 (R&D Systems, 292-G2), growth factor | – | proliferated rapidly | indistinguishable from the response to EGF |
| EGF: growth factor added to neurosphere cultures (NSDSECPLSHDGYCLHDGVCMYIEALDKYACNCVVGYIGERCQYRDLKWWELR; Epidermal growth factor; UniProt P01133 971-1023, looked up) | – | proliferated rapidly | – |
